Ends that are not written are not given here. * marks the point of attachment. Acm = CC(=O)NC*
Tests used:
[1] = test system: male mice C57/b16; assay: Matrigel pellet s.c. in mice, hemoglobin amount (Drabkin's method); type: in vivo; settings: Matrigel with FGF 2 ng/ml and heparin 36 U/ml s.c., 4 days; dose of 1 mg/mouse; compared with controls
Description: […] of Matrigel containing FGF 2 ng/ml and heparin 36 U/ml were inoculated s.c. in the abdominal region of male mice C57/b16, of age from 6 to 10 weeks. […] Six animals were used in each experiment. After 4 days, the gelatinized Matrigel pellet was recovered and the amount of hemoglobin therein was measured by means of a commercial kit based on Drabkin's method ([…] Aldrich).

[2] = test system: EA.hy.926 cells; assay: DNA synthesis (tritiated thymidine incorporation) in EA.hy.926 cells stimulated with 10% FBS; type: cell-based, human; settings: 24 hours, starting from the concentration of 10^−12 M
Description: Endothelial human cells EA.hy.926 were grown in DMEM supplemented with 10% fetal bovine serum (FBS) and with the appropriate concentrations of glutamine and antibiotics. Before the experiments, the cells had been deprived of serum for 24 hours in 0.1% FBS. EA.hy.926 cells were inoculated in 96 well-plates and, after being deprived of serum for 24 hours, were 'stimulated with 10% FBS in the presence or in the absence of different concentrations of the peptide 6-49 or of endostatin for further 24 hours. Tritiated tymidine (1 μCi/well) was added during the last 6 hours of incubation. The cells were then extracted in 10% TCA and the radioactivity incorporated in the TCA-insoluble fraction was determined after solubilization in 0.5 M NaOH. The results, reported in FIGS. 3a and 3b, are expressed as the percentage of the maximal stimulation induced by 10% serum in the absence of the drug.

[3] = test system: EA.hy.926 cells; assay: EA.hy.926 cell migration, chemotaxis test in Boyden chamber; type: cell-based, human; settings: glioma conditioned medium as chemotactic stimulus, 4 hours, at/starting from 10^−9 M
Description: Endothelial human cells EA.hy.926 were grown in DMEM supplemented with 10% fetal bovine serum (FBS) and with the appropriate concentrations of glutamine and antibiotics. Before the experiments, the cells had been deprived of serum for 24 hours in 0.1% FBS. EA.hy.926 cells migration has been evaluated by chemotaxis test in a 48 well Boyden chamber using polycarbonate filters of 12 μm porosity pre-treated with a 10 μg/ml type I collagen solution. […] The chemotactic stimulus, represented by a conditioned medium obtained by a culture of glioma cells, was added to the lower chamber. After 4 hours of incubation at 37° C., non migrated cells were removed by a scraper and the filter was colored with Diff Quick. Migrated cells were then counted at a 400×magnification in 6 different fields. The results, reported in FIG. 2, are expressed as a percentage of the maximal migration induced by the conditioned medium in the presence of the peptide or of endostatin.

[4] = test system: endothelial cells; assay: Tubules formation by endothelial cells on Matrigel; type: cell-based; settings: endothelial cells on Matrigel with FGF or VEGF; area quantified by NIH Image
Description: The formation of tubular structures, similar to capillaries, was evaluated by seeding the endothelial cells on a Matrigel carrier, a re-constructed basal membrane, with the characteristic of being liquid at 4° C. and of undergoing polymerization at 37° C. forming a tri-dimensional gel. Proangiogenic factors, such as Fibroblast Growth Factor (FGF) or Vascular Endothelial Growth Factor (VEGF), were added to the medium in the presence of the peptide 9-49 and the plate's were incubated at 37° C. under 5% CO2 atmosphere. Tubules formation was monitored observing the cells with an inverted microscope and, after recording the image by means of photography, a quantification was performed by evaluating the area occupied by the cells and by the capillaries network. Upon observation under the microscope, it is evident that the peptide of invention is able to inhibit the capacity of endothelial cells to form tubular structures similar to capillaries, which on the contrary are clearly evident in the untreated control cells (FIG. 4A). In FIG. 4B, a quantitative analysis of the effect, carried out by a proper software (NIH Image), is reported.

FQPVLHLVALNSPLSGGMRGIRGADFQC(Acm)FQQARAVGLAGTFRAF [Peptide 6-49, tetratetracontapeptide]
hemoglobin levels in the Matrigel pellets [1]: capable of reducing hemoglobin levels
maximal inhibition of DNA synthesis [2]: about 80%
maximal inhibition of cell migration [3]: about 60%
tubules formation compared with controls, considered as 100% [4]: 23%
